Measured values from PMC13305993, “Bioassay-Guided Phytochemical Investigation of Vietnamese Vitex rotundifolia Leaves and the Liverwort Ptychanthus striatus as Sources of SARS-CoV-2 Main Protease Inhibitors” (Molecules, 2026).

Biological target: SARS-CoV-2 Mpro (Severe acute respiratory syndrome coronavirus 2, UniProt P0DTD1)
Experiment: biochemical
Conditions: isolated compounds at 100 µg/mL; triplicate, mean (Figure 3)

Q: How did the inhibition at 100 µg/mL turn out when C=C(C)[C@@H]1CC[C@]2(C(=O)O)CC[C@]3(C)[C@H](CC[C@@H]4[C@@]5(C)CC[C@H](O)C(C)(C)[C@@H]5CC[C@]43C)[C@@H]12 [V10, betulinic acid] was run?
A: 0%
